Assay [1] concerns Cavia porcellus. As to the kind of experiment: Ability to prevent PAF-induced bronchoconstriction in guinea pig when administered dose 0.5 mg/kg intravenously. The class given is functional. Particulars: route intravenous; call rule not given here.
The target in assay [2] is Platelet-activating factor receptor (Cavia porcellus) (UniProt P21556). As to the kind of experiment: Ability to prevent PAF-induced bronchoconstriction in guinea pig when administered intravenously. The class given is functional.
Platelet-activating factor receptor (Cavia porcellus), sequence (P21556 whole entry): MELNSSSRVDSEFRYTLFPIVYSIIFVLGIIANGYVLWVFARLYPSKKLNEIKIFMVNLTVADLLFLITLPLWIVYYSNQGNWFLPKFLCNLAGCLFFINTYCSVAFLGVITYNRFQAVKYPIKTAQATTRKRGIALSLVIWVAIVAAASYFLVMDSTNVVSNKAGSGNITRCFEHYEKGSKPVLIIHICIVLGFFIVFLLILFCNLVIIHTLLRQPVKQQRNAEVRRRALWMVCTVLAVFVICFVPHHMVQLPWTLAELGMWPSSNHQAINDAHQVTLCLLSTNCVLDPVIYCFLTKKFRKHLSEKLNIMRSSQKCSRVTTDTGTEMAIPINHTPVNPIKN
The target is the same in assay [3]. Put plainly: Ability to prevent PAF-induced bronchoconstriction in guinea pig 2 hr after administration (50 mg/kg perorally). The class given is functional, organism-based.
In assay [4] the test system is Cavia porcellus. Put plainly: Ability to prevent PAF-induced bronchoconstriction in guinea pig 6 hr following 50 mg/kg p.o. administration. The class given is functional. The note with it: route oral.
The subject of assay [5] is Cavia porcellus. As to the kind of experiment: Inhibition of PAF-induced bronchoconstriction in guinea pig 2 hr after p.o. administration. The class given is functional. Particulars: po, read-out: ID50 (the source's name).
In assay [6] the test system is Cavia porcellus. As to the kind of experiment: Ability to prevent PAF-induced bronchoconstriction in guinea pig when administered dose 1 mg/kg intravenously. The class given is functional. Particulars: route intravenous.
Assay [7] deals with Cavia porcellus. As to the kind of experiment: Ability to prevent PAF-induced bronchoconstriction in guinea pig when administered at a dose of 1 mg/kg intravenously. The class given is functional. Particulars: route intravenous.
The subject of assay [8] is Cavia porcellus. As to the kind of experiment: Inhibitory activity against bronchoconstriction in guinea pig 2 hr after peroral administration of compound. It is filed as functional. Particulars: Lung, po, read-out: ID50 (the source's name).
In assay [9] the test system is Cavia porcellus. Put plainly: PAF-induced capillary permeability changes are studied in guinea pig skin test, after peroral administration of the compound. Particulars: po, read-out: ID50 (the source's name). It is filed as functional.
Assay [10] concerns Cavia porcellus. As to the kind of experiment: PAF-induced capillary permeability changes are studied in guinea pig test, after intravenous administration of the compound. The class given is functional. Particulars: read-out: ID50 (the source's name).
For assay [11], the system named is Rattus norvegicus. Put plainly: PAF-induced capillary permeability changes are studied in rat skin test, after peroral administration of the compound. It is filed as functional. The note with it: po, read-out: ID50 (the source's name).
The test system of assay [12] is Rattus norvegicus. Put plainly: PAF-induced capillary permeability changes are studied in rat skin test, after intravenous administration of the compound. The class given is functional. The note with it: read-out: ID50 (the source's name).
Assay [13] deals with Platelet-activating factor receptor (Canis familiaris). Put plainly: Compound was evaluated for inhibition of platelet activating factor binding activity in dog platelets using [3H]PAF as radioligand; NA means inactive.
Assay [14] deals with Cavia porcellus. As to the kind of experiment: Ability to prevent PAF-induced bronchoconstriction in guinea pig 2 hr after administration of compound (50 mg/kg perorally). The class given is functional. Particulars: po, read-out: ID50 (the source's name).

One may read the inhibition in vivo as the relative decrease from the control value, in per cent. By inhibition is commonly meant the share of the control response that was lost under treatment. A high value points to a strong effect.

On to `O=C(CCC=C(c1ccccc1)c1ccccc1)NCCCCc1cccnc1`, for which the inhibition in vivo at 0.5 mg/kg in the assay on Cavia porcellus [1] is 21%.
As to `CCCCCC/C(=C\C=C\C(=O)N[C@H](C)CCCc1cccnc1)c1ccc(OC)cc1`, the ID50 in assay [2] is 0.07 mg/kg. Besides, the inhibition in assay [3] was 96%. In the assay with Cavia porcellus [4], the inhibition in vivo at 50 mg/kg turned out to be 14%. Further, the ED50 in the assay on Cavia porcellus [5] came out at 8 mg/kg. In addition, in the assay with Cavia porcellus [6], the inhibition in vivo at 1 mg/kg is 100%.
Consider `O=C(/C=C/C=C(c1cccc(F)c1)c1cccc(F)c1)NCCCCc1cccnc1`, for which, in [2], the ID50 was 0.34 mg/kg. The inhibition in assay [3] amounted to 37%. Moreover, the inhibition in vivo at 1 mg/kg with Cavia porcellus [7] stood at 71%. Moreover, in the assay on Cavia porcellus [8], the ED50 is 50 mg/kg.
As to `CCCCC/C(=C\C=C\C(=O)N[C@H](C)CCCc1cccnc1)c1ccc(OC)cc1`, in assay [2], the ID50 was determined as 0.05 mg/kg. Moreover, in assay [3], the inhibition stood at 100%. Moreover, in the assay on Cavia porcellus [4], the inhibition in vivo at 50 mg/kg worked out at 71%. For the same molecule, the inhibition in vivo at 1 mg/kg in the assay with Cavia porcellus [7] is 99%. Moreover, the ED50 in the assay with Cavia porcellus [9] was 65 mg/kg; in the assay on Cavia porcellus [10], 3 mg/kg; in the assay with Cavia porcellus [8] it was 16 mg/kg; in the assay with Rattus norvegicus [11], 70 mg/kg; with Rattus norvegicus [12] it was 1.7 mg/kg.
For the molecule `O=C(C=C(c1ccccc1)c1ccccc1)NCCCCc1cccnc1`, the ID50 in assay [2] came to 0.58 mg/kg. Besides, in [3], the inhibition is 28%. Further, in the assay with Cavia porcellus [1], the inhibition in vivo at 0.5 mg/kg turned out to be 66%.
With `O=C(CCCC=C(c1ccccc1)c1ccccc1)NCCCCc1cccnc1`, the IC50 result in [13] was “Not Active”.
Turning to `O=C(CCCCC=C(c1ccccc1)c1ccccc1)NCCCCc1cccnc1`, the inhibition in vivo at 0.5 mg/kg in the assay with Cavia porcellus [1] is 15%.
In the case of `COc1ccc(C(=C/C=C/C(=O)N[C@H](C)CCCc2cccnc2)c2ccc(OC)cc2)cc1`, the ID50 in [2] was found to be 0.25 mg/kg. Further, the inhibition in assay [3] was found to be 98%. In addition, the inhibition in vivo at 50 mg/kg with Cavia porcellus [4] came out at 93%. Besides, the inhibition in vivo at 1 mg/kg with Cavia porcellus [7] was determined as 98%. Further, the ED50 with Cavia porcellus [9] worked out at 75 mg/kg; with Cavia porcellus [10] it was 15 mg/kg; in the assay on Cavia porcellus [8] it was 4 mg/kg; with Rattus norvegicus [11] it was 25 mg/kg; with Rattus norvegicus [12] it was 2 mg/kg.
For `O=C(CCCCCC=C(c1ccccc1)c1ccccc1)NCCCCc1cccnc1`, the IC50 entry in assay [13] is on record as “Not Active”.
Turning to `O=C(/C=C\C=C(c1ccccc1)c1ccccc1)NCCCCc1cccnc1`, the inhibition in vivo at 0.5 mg/kg with Cavia porcellus [1] was -1%.
In the case of `Cc1nnc2n1-c1sc(CCC(=O)N3CCOCC3)cc1C(c1ccccc1Cl)=NC2` [APAFANT], in assay [2], the ID50 worked out at 0.03 mg/kg. The same molecule came in with an inhibition in assay [3] of 100%. In addition, in the assay on Cavia porcellus [4], the inhibition in vivo at 50 mg/kg stood at 100%. In the assay on Cavia porcellus [7], the inhibition in vivo at 1 mg/kg was determined as 99%. Moreover, the ED50 with Cavia porcellus [9] was 35 mg/kg; in the assay on Cavia porcellus [10], 2.5 mg/kg; with Cavia porcellus [5], 1 mg/kg; in the assay with Rattus norvegicus [11], 45 mg/kg; in the assay with Rattus norvegicus [12] it was 0.64 mg/kg.
`O=C(/C=C/C=C(c1ccc(F)cc1)c1ccc(F)cc1)NCCCCc1cccnc1`: the ID50 in assay [2] worked out at 0.38 mg/kg. Also, in [3], the inhibition turned out to be 89%. In addition, the inhibition in vivo at 1 mg/kg in the assay on Cavia porcellus [7] was found to be 91%. Besides, in the assay with Cavia porcellus [8], the ED50 was 28 mg/kg.
In the case of `O=C(CC=C(c1ccccc1)c1ccccc1)NCCCCc1cccnc1`, the IC50 result in [13] is “Not Active”.
On to `O=C(C/C=C/C=C(c1ccccc1)c1ccccc1)NCCCCc1cccnc1`, for which the inhibition in [3] came out at 35%. Also, the inhibition in vivo at 0.5 mg/kg in the assay on Cavia porcellus [1] was 60%. Also, in the assay with Cavia porcellus [14], the ED50 came to 0.62 mg/kg.
Take `COc1ccc(C(=C/C=C/C(=O)N[C@H](C)CCCc2cccnc2)c2ccc(OC)c(OC)c2)cc1OC`: the ID50 in [2] amounted to 0.14 mg/kg. For the same molecule, the inhibition in [3] was 67%. In addition, the inhibition in vivo at 50 mg/kg with Cavia porcellus [4] was determined as 2%. The inhibition in vivo at 1 mg/kg in the assay on Cavia porcellus [7] was 99%. For the same molecule, in the assay on Cavia porcellus [5], the ED50 is 26 mg/kg.

(Values after ChEMBL document CHEMBL1124557, “Pentadienyl carboxamide derivatives as antagonists of platelet-activating factor” (J Med Chem, 1989).)
